Literature values in PMC11573584, “Thanatin and vinyl sulfide analogues as narrow spectrum antimicrobial peptides that synergise with polymyxin B” (Frontiers in Pharmacology, 2024).
Like-named read-outs stand apart in the source and are kept apart here. Marks after values point to notes of the source that are not given here.

Key:
[1] = tested on: P. aeruginosa ATCC 27853; settings: non-cation adjusted media, ref Sinha et al. (2022); cited from earlier work
Description: (§1) TABLE 1 Minimum Inhibitory Concentrations (MICs) of thanatin* (5) and similar analogues against a variety of pathogens. | column: Minimum inhibitory concentration (µM) / Thanatin ^a ^, ^b (1); Minimum inhibitory concentration (µM) / Thanatin M21F ^b (4)

[2] = tested on: E. coli BL21; settings: non-cation adjusted media, ref Sinha et al. (2022); cited from earlier work
Description: as §1

[3] = tested on: P. aeruginosa PAO1; settings: ref Sinha et al. (2022); cited from earlier work
Description: TABLE 2 Minimum Inhibitory Concentrations (MICs) of thanatin* (5) and analogues (8–11) towards a variety of pathogens. | column: Minimum inhibitory concentration (µM) / 1 (Thanatin) ^a

[4] = tested on: E. coli ATCC 25922; settings: non-cation adjusted media, ref Wu et al. (2013); cited from earlier work
Description: as §1, with “S-Thanatin ^a (3) || TABLE 2 Minimum Inhibitory Concentrations (MICs) of thanatin* (5) and analogues (8–11) towards a variety of pathogens. | column: Minimum inhibitory concentration (µM) / 1 (Thanatin) ^a” for “Thanatin M21F ^b (4)”

[5] = tested on: S. aureus ATCC 25923; settings: non-cation adjusted media, ref Sinha et al. (2022), cited from earlier work
Description: as §1, with “(4) || TABLE 2 Minimum Inhibitory Concentrations (MICs) of thanatin* (5) and analogues (8–11) towards a variety of pathogens. | column: Minimum inhibitory concentration (µM) / 1 (Thanatin) ^a” for “(4)”

Substance: Thanatin [Thanatin (1)]
- Minimum inhibitory concentration (MIC) [1]: 1 ^b µM
- Minimum inhibitory concentration (MIC) [2]: 0.5 ^b µM
- Minimum inhibitory concentration (MIC) [3]: 2 µM
- Minimum inhibitory concentration (MIC) [4]: 3.2 ^a µM
- Minimum inhibitory concentration (MIC) ([5]; listed as 1 (Thanatin)): 8 µM
- Minimum inhibitory concentration (MIC) [5]: 8 ^b µM
